Patent US20230398146A1, “IMMUNE MODULATION OF MYELOID DERIVED SUPPRESSIVE CELL FUNCTION FOR CANCER TREATMENT” (SURGE Therapeutics, Inc., priority 2020, published 2023)

Test system: 4T1-Luc2 cells
Test: Survival of mice after resection of orthotopic 4T1-Luc2 breast tumors, composition administered at the tumor resection site
Type: in vivo, mouse
Description: In some embodiments, an animal model of cancer can be used to identify and/or characterize composition comprising a polymeric biomaterial and a modulator of myeloid-derived suppressive cells. For example, a tumor resection is performed on a tumor-bearing mouse, and a composition described herein, e.g., composition comprising a polymeric biomaterial and a modulator of myeloid-derived suppressive cells is administered to the tumor resection site. The survival of treated subjects is then monitored. In some embodiments, a composition comprising a polymeric biomaterial and a modulator of myeloid-derived suppressive cells is considered and/or determined to be useful in accordance with the present disclosure when it is characterized, in that when tested in vivo as described in the present Example, it extends survival of a treated subject, e.g., by at least 1 week, at least 2 weeks, at least 3 weeks, at least 4 weeks, at least 2 months, at least 3 months, at least 4 months, at least 5 months, at least 6 months, or longer, as compared to that observed in a control reference (e.g., a control in which a composition comprising a polymeric biomaterial and a modulator of myeloid-derived suppressive cells is not administered. For example, in some embodiments, a control reference may be administration of a polymeric biomaterial in the absence of a modulator of myeloid-derived suppressive cell function. In some embodiments, a control reference may be administration of a modulator of myeloid-derived suppressive cell function in solution. Alternatively, in some embodiments, a provided composition comprising a biomaterial preparation and a modulator of myeloid-derived suppressive cells is considered and/or determined to be useful for treatment of cancer (including, e.g., prevention or reduction in the likelihood of tumor relapse or metastasis) in accordance with the present disclosure when such a composition, after administration at a tumor resection site, reduces incidence of tumor recurrence and/or metastasis after the tumor resection (e.g., at least 1 month after tumor resection when the test subject is a mouse subject, or at least 3 months after tumor resection when the test subject is a human subject), for example, by at least 10% or more (comprising, e.g., at least 20%, at least 30%, at least 40%, at least 50%, at least 60%, at least 70%, at least 80%, at least 90%, or more) as compared to that observed in a control reference (e.g., as described above).
In some embodiments, female BALB/cJ mice are inoculated orthotopically with 100,000 breast cancer cells (e.g., 4T1-Luc2 cells). Ten days later, tumors are surgically resected, and either (i) a composition described herein, e.g., a composition comprising a polymeric biomaterial and a modulator of myeloid-derived suppressive cells, (ii) a composition comprising a polymeric biomaterial without a modulator of myeloid-derived suppressive cells, and/or (iii) a negative control composition (e.g., a buffered solution without such a composition) is administered into the resection cavity. Animal survival can be monitored to inspect for induction of antitumor immunity. In some embodiments, to confirm that a composition comprising a polymeric biomaterial and a modulator of myeloid-derived suppressive cells functions mechanistically, for example, by modulating recruitment and/or survival and/or proliferation of myeloid-derived suppressive cells (e.g., neutrophils), animal survival may be monitored following inhibition of recruitment and/or survival and/or proliferation of myeloid-derived suppressive cells (e.g., neutrophils). In some embodiments, to confirm that an administered composition comprising a polymeric biomaterial and a modulator of myeloid-derived suppressive cells functions mechanistically by modulating myeloid-derived suppressive cell effector function, animal survival may be monitored following modulating myeloid-derived suppressive cell effector function (e.g., as described herein). […]

[1] = 10% w/w poloxamer 407 + 3% w/w 187 kDa HA with agent, 1.25 mg/mouse, at tumor resection site (day 10), vs same biomaterial without agent and vs 15% w/w poloxamer 407

CC/C=C\C[C@H](O)[C@H](O)/C=C/C=C/C=C\C=C\[C@@H](O)C/C=C\CCC(=O)O [Resolvin D2] was tested, and the “survival of tumor resection mice” value (FIG. 4: 10% w/w poloxamer 407 + 3% w/w 187 kDa HA with agent, 2.5 μg/mouse, at tumor resection site, vs same biomaterial without agent and vs 15% w/w poloxamer 407) was “survived over a longer period of time”.

For Cc1c(C#N)cccc1-c1cc(-c2cn(Cc3cccc(C(C)(C)O)n3)nn2)nc(N)n1 [AB928, etrumadenant], the “survival of tumor resection mice” value [1] was “survived over a longer period of time”.

With O=C(c1ccccc1)c1ccc2n1CCC2C(=O)O (stereo not shown) [Ketorolac] the “survival of tumor resection mice” value (FIG. 2A: 10% w/w poloxamer 407 + 3% w/w 187 kDa HA with agent, 6 mg/mouse, at tumor resection site, vs same biomaterial without agent and vs 15% w/w poloxamer 407) was “survived over a longer period of time”, the “survival of tumor resection mice” value (FIG. 2B: 10% w/w poloxamer 407 + 3% w/w 187 kDa HA with agent, 9 mg/mouse, at tumor resection site, vs same biomaterial without agent and vs 15% w/w poloxamer 407) was “survived over a longer period of time” and the “survival of tumor resection mice” value (FIG. 3: 9% w/w poloxamer 407 + 2.2% w/w 766 kDa HA with agent, 1.2 mg/mouse, at tumor resection site, vs same biomaterial without agent) was “survived over a longer period of time”.

For c1cc(CN2CCCNCCNCCCNCC2)ccc1CN1CCCNCCNCCCNCC1 [Plerixafor], the “survival of tumor resection mice” value [1] was “survived over a longer period of time”.

For CCCCC(=O)N(Cc1ccc(-c2ccccc2-c2nnn[nH]2)cc1)[C@H](C(=O)O)C(C)C [Valsartan], the “survival of tumor resection mice” value (FIG. 7: 11% w/w poloxamer 407 + 1.8% w/w 766 kDa HA with agent, 1 mg/mouse, at tumor resection site, vs same biomaterial without agent) was “survived over a longer period of time”.
